According to ChEMBL document CHEMBL4483862, “Open-source discovery of chemical leads for next-generation chemoprotective antimalarials” (2018):

Test system: Plasmodium berghei
Experiment: Luciferase/luciferin-expressing antifolate-resistant parasites were used to infect a culture of HepG2 cells that were pre-incubated with compounds. Infected hepatocytes emit light due to the luciferase reaction. Assay results are presented as the percent inhibition of light emission compared to control. […]
Format: functional
Conditions: sporozoite; for IC90: read-out: LUCIFERASE INFECTION ASSAY - IC90
[1] = read-out: LUCIFERASE INFECTION ASSAY - IC50

Row | Structure (SMILES) | IC90 | IC50 [1] | also measured
1 | COc1ccccc1OCCNC(=O)c1cc(C2CC2)nc2c1cnn2C(C)C | > 10 µM |  | IC50 (FFLUC_HILL_SLOPE 16.8, FFLUC_R_SQUARED 0.0713, HEPG2TOX_HILL_SLOPE 2.22, HEPG2TOX_R_SQUARED 0.212, read-out: LUCIFERASE INFECTION ASSAY - IC50): > 10 µM
2 | Cc1ccc(/C=N/n2c(-c3cc(C)c(C)cc3C)cs/c2=N\CC2CCCO2)o1 (centres undefined) | 3.52 µM |  | IC50 (FFLUC_HILL_SLOPE 16.3, FFLUC_R_SQUARED 0.0442, HEPG2TOX_HILL_SLOPE 1.44, HEPG2TOX_R_SQUARED 0.874, PBLUC_HILL_SLOPE 40.1, PBLUC_R_SQUARED 0.415, read-out: LUCIFERASE INFECTION ASSAY - IC50): 3.33 µM
3 | CC(C)CN(C(=O)c1ccc(N2CCCC2)c([N+](=O)[O-])c1)c1nc2ccccc2s1 | 0.595 µM |  | IC50 (FFLUC_HILL_SLOPE 0.859, FFLUC_R_SQUARED 0.184, HEPG2TOX_HILL_SLOPE 0.259, HEPG2TOX_R_SQUARED 0.321, PBLUC_HILL_SLOPE 3.83, PBLUC_R_SQUARED 0.838, read-out: LUCIFERASE INFECTION ASSAY - IC50): 0.336 µM
4 | N#C/C(=C\C=C\c1ccccc1[N+](=O)[O-])C(=O)NC1CCCCC1 | 4.14 µM |  | IC50 (HEPG2TOX_HILL_SLOPE 4.42, HEPG2TOX_R_SQUARED 0.954, PBLUC_HILL_SLOPE 12.2, PBLUC_R_SQUARED 0.458, read-out: LUCIFERASE INFECTION ASSAY - IC50): 3.46 µM
5 | Cc1c(C)c(C)c2[nH]c(S)nc2c1C | > 16 µM |  | IC50 (HEPG2TOX_HILL_SLOPE 6.45, HEPG2TOX_R_SQUARED 0.505, PBLUC_HILL_SLOPE 19.5, PBLUC_R_SQUARED 0.258, read-out: LUCIFERASE INFECTION ASSAY - IC50): 15.4 µM
6 | Cn1c(NCc2ccccc2F)nc2cnc(Nc3cccc(OC(F)(F)F)c3)cc21 | > 10 µM | > 10 µM | 
7 | O=C(/C=C/c1ccccc1OC(F)F)N(Cc1ccccc1)c1nnc(SC(F)F)s1 | 3.6 µM |  | IC50 (HEPG2TOX_HILL_SLOPE 8.23, HEPG2TOX_R_SQUARED 0.589, PBLUC_HILL_SLOPE 26.6, PBLUC_R_SQUARED 0.272, read-out: LUCIFERASE INFECTION ASSAY - IC50): 3.31 µM
8 | Cn1nc(-c2ccc(C(=O)Nc3ccccc3)s2)cc1C(F)(F)F | 8.54 µM |  | IC50 (HEPG2TOX_HILL_SLOPE 17.1, HEPG2TOX_R_SQUARED 0.873, PBLUC_HILL_SLOPE 3.01, PBLUC_R_SQUARED 0.475, read-out: LUCIFERASE INFECTION ASSAY - IC50): 4.12 µM
9 | CCn1nc(C)c(Br)c1C(=O)Sc1ccccc1Cl | > 9.17 µM |  | IC50 (FFLUC_HILL_SLOPE 17.2, FFLUC_R_SQUARED 0.444, read-out: LUCIFERASE INFECTION ASSAY - IC50): > 9.17 µM
10 | CNc1nc(NCc2cccc(OC)c2)c2sc(-c3ccccc3)cc2n1 | > 8.77 µM | > 8.77 µM | 
11 | COc1ccc(C2CCCCCN2C(=O)c2csc(-c3ccsc3)n2)cc1 (centres undefined) | > 10 µM |  | IC50 (HEPG2TOX_HILL_SLOPE 2.14, HEPG2TOX_R_SQUARED 0.977, PBLUC_HILL_SLOPE 2.8, PBLUC_R_SQUARED 0.0937, read-out: LUCIFERASE INFECTION ASSAY - IC50): 5.38 µM
12 | Cc1nn(-c2ccc(F)cc2)c(Cl)c1/C=C1\C(=O)Nc2ccccc21 | 4.68 µM |  | IC50 (HEPG2TOX_HILL_SLOPE 2.09, HEPG2TOX_R_SQUARED 0.992, PBLUC_HILL_SLOPE 1.31, PBLUC_R_SQUARED 0.551, read-out: LUCIFERASE INFECTION ASSAY - IC50): 0.878 µM
13 | O=C(/C=N/Nc1ncc(C(F)(F)F)cc1Cl)c1ccccn1 | > 10 µM |  | IC50 (PBLUC_HILL_SLOPE 3.06, PBLUC_R_SQUARED 0.0968, read-out: LUCIFERASE INFECTION ASSAY - IC50): 8.78 µM
14 | O=C(c1ccoc1)N1CCN(Cc2sc3ccccc3c2Cl)CC1 | > 10 µM | > 10 µM | 
15 | Cc1cc(C(=O)Nc2nc3c(C)cccn3c2C(=O)NC2CCCC2)c(C)o1 | > 8.67 µM | > 8.67 µM | 
16 | O=C(NNC1=NN(c2ccccc2)c2ccc(Br)cc2N1)c1ccc(F)cc1 | > 10 µM |  | IC50 (FFLUC_HILL_SLOPE 3.33, FFLUC_R_SQUARED 0.811, read-out: LUCIFERASE INFECTION ASSAY - IC50): > 10 µM
17 | Cn1c(Nc2ccccc2)nc2cnc(-c3cccc4ccccc34)cc21 | 4.66 µM |  | IC50 (HEPG2TOX_HILL_SLOPE 1.56, HEPG2TOX_R_SQUARED 0.963, PBLUC_HILL_SLOPE 1.41, PBLUC_R_SQUARED 0.827, read-out: LUCIFERASE INFECTION ASSAY - IC50): 0.98 µM
18 | CSc1sc(Br)c2c1/C(=N\O)CC(C)(C)C2 | > 10.3 µM | > 10.3 µM | 
19 | CC(=O)NCc1ccc(-c2csc(NC(=O)CCc3ccco3)n2)cc1 | > 10 µM | > 10 µM | 
20 | CNc1cc(CSCc2ccc(Cl)cc2)nc(-c2ccccc2)n1 | > 9.27 µM | > 9.27 µM | 
21 | C=S(NC(=O)Nc1ccc(Cl)cc1)c1sc(Cl)c2c1C(=O)CCC2 (centres undefined) | > 8.22 µM | > 8.22 µM | 

Row | Structure (SMILES) | IC90 | IC50 [1] | also measured
22 | Cc1cc(=O)n2nc(C)c(-c3ccc(F)cc3)c2[nH]1 | > 12.8 µM |  | IC50 (PBLUC_HILL_SLOPE 15.8, PBLUC_R_SQUARED 0.105, read-out: LUCIFERASE INFECTION ASSAY - IC50): > 12.8 µM
23 | COc1ccc2c(-c3ccccc3)cc(NCCc3ccc(S(N)(=O)=O)cc3)nc2c1 | > 10 µM | 8.55 µM | 
24 | CC1(C)N=C(N)N=C(N)N1c1ccc([N+](=O)[O-])cc1 | > 10 µM | > 10 µM | 
25 | C=CCn1c(SCc2cc([N+](=O)[O-])cc3c2OCOC3)nc2cc(C(=O)O)ccc2c1=O | 6.97 µM | 1.82 µM | 
26 | Oc1cc(OCCN2CCCCC2)ccc1-c1n[nH]cc1-c1ccccc1 | > 9.08 µM | > 9.08 µM | 
27 | Cc1noc(/C=C/c2nn(C)cc2Cl)c1[N+](=O)[O-] | 11.7 µM |  | IC50 (HEPG2TOX_HILL_SLOPE 8.49, HEPG2TOX_R_SQUARED 0.211, PBLUC_HILL_SLOPE 2.15, PBLUC_R_SQUARED 0.722, read-out: LUCIFERASE INFECTION ASSAY - IC50): 4.22 µM
28 | CN(C)C(=O)c1ccc(-c2cc3c(Nc4cccc(N(C)C)c4)nccc3n2C)cc1 | > 10 µM | > 10 µM | 
29 | O=[N+]([O-])c1cnc(Sc2nnc(O)n2C2CCCCC2)s1 | 9.75 µM |  | IC50 (FFLUC_HILL_SLOPE 1.98, FFLUC_R_SQUARED 0.448, HEPG2TOX_HILL_SLOPE 4.19, HEPG2TOX_R_SQUARED 0.922, PBLUC_HILL_SLOPE 12.6, PBLUC_R_SQUARED 0.344, read-out: LUCIFERASE INFECTION ASSAY - IC50): 8.19 µM
30 | CC(C)Nc1cc(C(=O)Nc2ccccc2)ncn1 | > 12.9 µM |  | IC50 (FFLUC_HILL_SLOPE 1.2, FFLUC_R_SQUARED 0.891, PBLUC_HILL_SLOPE 0.483, PBLUC_R_SQUARED 0.815, read-out: LUCIFERASE INFECTION ASSAY - IC50): 0.196 µM
31 | CCC(NC(=O)NCc1ccccc1S(=O)(=O)N1CCCCC1)c1ccc(Cl)cc1 (centres undefined) | > 10 µM |  | IC50 (PBLUC_HILL_SLOPE 1.14, PBLUC_R_SQUARED 0.117, read-out: LUCIFERASE INFECTION ASSAY - IC50): > 10 µM
32 | O=S(=O)(c1ccc2ccccc2c1)N1CCN(c2ncc(C(F)(F)F)cc2Cl)CC1 | > 7.24 µM | > 7.24 µM | 
33 | Cc1cc(C(=O)CSc2nc3cc([N+](=O)[O-])ccc3n2-c2ccccc2)c(C)n1Cc1ccco1 | > 10 µM | > 10 µM | 
34 | COC(=O)c1cc(CNCC(O)COc2ccc(C(C)(C)CC(C)(C)C)cc2)ccc1OC (centres undefined) | 4.63 µM |  | IC50 (PBLUC_HILL_SLOPE 7.71, PBLUC_R_SQUARED 0.722, read-out: LUCIFERASE INFECTION ASSAY - IC50): 3.48 µM
35 | O=[N+]([O-])c1ccsc1Sc1ccc(C(F)(F)F)cn1 | > 10.8 µM |  | IC50 (FFLUC_HILL_SLOPE 11.2, FFLUC_R_SQUARED 0.0124, HEPG2TOX_HILL_SLOPE 0.715, HEPG2TOX_R_SQUARED 0.731, read-out: LUCIFERASE INFECTION ASSAY - IC50): > 10.8 µM
36 | CCSc1nccc(-c2ccc3c(c2)CCC(C)(C)O3)n1 | 3.37 µM |  | IC50 (PBLUC_HILL_SLOPE 1.33, PBLUC_R_SQUARED 0.696, read-out: LUCIFERASE INFECTION ASSAY - IC50): 0.648 µM
37 | N#Cc1c(Cl)cccc1N1CCCC1c1ccc2c(c1)OCCCO2 (centres undefined) | > 10 µM |  | IC50 (HEPG2TOX_HILL_SLOPE 1.92, HEPG2TOX_R_SQUARED 0.934, read-out: LUCIFERASE INFECTION ASSAY - IC50): > 10 µM
38 | CN(C)C(=O)c1cccc(-c2cn3c(-c4ccc5c(ccn5C)c4)cnc3cn2)c1 | > 8.34 µM |  | IC50 (HEPG2TOX_HILL_SLOPE 2.46, HEPG2TOX_R_SQUARED 0.94, PBLUC_HILL_SLOPE 1.63, PBLUC_R_SQUARED 0.793, read-out: LUCIFERASE INFECTION ASSAY - IC50): 2.64 µM
39 | Cc1c(C(=O)Nc2nc(CN3CC(C)CC(C)C3)cs2)[nH]c2c1C(=O)CC(C)(C)C2 (centres undefined) | 9.99 µM |  | IC50 (PBLUC_HILL_SLOPE 1.7, PBLUC_R_SQUARED 0.746, read-out: LUCIFERASE INFECTION ASSAY - IC50): 2.74 µM
40 | C=CCNC(=O)CSc1nccc(-c2sc3sc(Br)c(C)c3c2C)n1 | > 7.26 µM |  | IC50 (HEPG2TOX_HILL_SLOPE 7.83, HEPG2TOX_R_SQUARED 0.735, PBLUC_HILL_SLOPE 0.44, PBLUC_R_SQUARED 0.419, read-out: LUCIFERASE INFECTION ASSAY - IC50): 2.88 µM
41 | CCOC(=O)c1c(C)nn(-c2ncccc2NC(=O)Nc2cccc(Cl)c2Cl)c1C | > 7.36 µM |  | IC50 (HEPG2TOX_HILL_SLOPE 1.28, HEPG2TOX_R_SQUARED 0.665, PBLUC_HILL_SLOPE 11.5, PBLUC_R_SQUARED 0.0917, read-out: LUCIFERASE INFECTION ASSAY - IC50): 6.84 µM
42 | OCc1ccc(-c2ccc3ncc(-c4cccnc4)n3n2)cc1 | 1.91 µM |  | IC50 (HEPG2TOX_HILL_SLOPE 8.03, HEPG2TOX_R_SQUARED 0.878, PBLUC_HILL_SLOPE 5.07, PBLUC_R_SQUARED 0.745, read-out: LUCIFERASE INFECTION ASSAY - IC50): 1.24 µM
